Assay [1] deals with T1, Kappa-type opioid receptor (Homo sapiens, UniProt P41145). Briefly: Displacement of [3H]U69,593 from human kappa opioid receptor expressed in CHO cell membranes after 60 mins by liquid scintillation counting. Background: Displacement assays read how much labelled ligand stays bound in the presence of the test substance.
Assay [2] addresses Delta-type opioid receptor (Homo sapiens, UniProt P41143). Description: Displacement of [3H]pCl-DPDPE from human delta opioid receptor expressed in CHO cell membranes after 60 mins by liquid scintillation counting.
Assay [3] concerns the target T1, Kappa-type opioid receptor. Description: Agonist activity at human kappa opioid receptor expressed in CHO cell membranes after 60 mins by [35S]GTPgammaS assay.
In assay [4] the target is T1, Kappa-type opioid receptor. Briefly: Agonist activity at human kappa opioid receptor expressed in CHO cell membranes after 60 mins by [35S]GTPgammaS assay relative to U69,593. The following applies: 1 h, read-out: %max.
A further assay concerns the target Mu-type opioid receptor (Homo sapiens, UniProt P35372). Description: Displacement of [3H]DAMGO from human mu opioid receptor expressed in CHO cell membranes after 60 mins by liquid scintillation counting.
The target of assay [5] is T1, Kappa-type opioid receptor. Conditions: CHO.
Description: Antagonist activity at human kappa opioid receptor expressed in CHO cell membranes assessed as inhibition of U69,593 stimulated [35S]GTPgammaS binding after 60 mins

Three molecules from ChEMBL document CHEMBL3856240, “Structural determinants of diphenethylamines for interaction with the κ opioid receptor: Synthesis, pharmacology and molecular modeling studies” (Bioorg Med Chem Lett, 2016) can be followed below.

Molecules are shown by their SMILES.

Chain of Mu-type opioid receptor (P35372 whole entry): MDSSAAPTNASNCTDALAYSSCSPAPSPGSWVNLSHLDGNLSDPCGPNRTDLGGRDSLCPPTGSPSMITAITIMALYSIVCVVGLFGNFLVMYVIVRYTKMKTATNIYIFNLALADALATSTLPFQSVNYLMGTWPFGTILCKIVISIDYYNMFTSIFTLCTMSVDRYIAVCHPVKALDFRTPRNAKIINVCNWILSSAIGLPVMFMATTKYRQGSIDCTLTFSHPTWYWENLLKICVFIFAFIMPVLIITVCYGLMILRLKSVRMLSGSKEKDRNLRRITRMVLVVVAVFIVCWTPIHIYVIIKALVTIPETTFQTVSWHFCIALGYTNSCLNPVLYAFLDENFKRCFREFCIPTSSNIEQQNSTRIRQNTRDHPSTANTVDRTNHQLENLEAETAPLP
T1 sequence (P41145 whole entry): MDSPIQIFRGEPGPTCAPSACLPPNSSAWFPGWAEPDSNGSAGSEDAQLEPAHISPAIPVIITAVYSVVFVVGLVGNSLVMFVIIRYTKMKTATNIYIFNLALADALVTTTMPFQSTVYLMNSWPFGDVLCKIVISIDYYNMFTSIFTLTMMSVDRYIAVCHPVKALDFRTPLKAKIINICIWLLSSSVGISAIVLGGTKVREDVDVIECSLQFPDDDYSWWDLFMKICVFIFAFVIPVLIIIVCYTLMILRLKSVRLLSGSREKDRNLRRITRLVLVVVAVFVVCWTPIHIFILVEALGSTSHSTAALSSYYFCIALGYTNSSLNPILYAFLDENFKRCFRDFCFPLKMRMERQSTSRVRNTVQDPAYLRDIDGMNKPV
Chain of Delta-type opioid receptor (P41143 whole entry): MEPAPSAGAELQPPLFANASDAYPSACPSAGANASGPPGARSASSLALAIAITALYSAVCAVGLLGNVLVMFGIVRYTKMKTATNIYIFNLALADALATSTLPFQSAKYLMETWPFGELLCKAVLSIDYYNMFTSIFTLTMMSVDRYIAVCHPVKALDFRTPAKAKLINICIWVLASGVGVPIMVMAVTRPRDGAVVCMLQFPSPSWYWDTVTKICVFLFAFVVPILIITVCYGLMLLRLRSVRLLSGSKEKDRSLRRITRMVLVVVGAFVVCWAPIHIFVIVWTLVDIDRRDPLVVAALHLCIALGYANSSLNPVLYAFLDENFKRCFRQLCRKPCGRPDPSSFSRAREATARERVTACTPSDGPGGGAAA

The term Ki denotes the dissociation constant of the complex between target and ligand, obtained from inhibition or displacement. The low end stands for tighter binding, the high end for weaker binding. By EC50 is commonly meant the concentration giving half of the maximal effect. A high value points to a less potent agent. Turning to `Oc1ccc(CCN(CCc2ccccc2)CC2CCC2)cc1`, the Ki worked out at 36.3 nM in assay [1], 2130 nM in assay [2] and 731 nM on Mu-type opioid receptor. Moreover, the 50% effective concentration (EC50) in assay [3] came out at 109 nM. Besides, the Emax in assay [4] worked out at 43.8%.
Take `Oc1cccc(CCN(CCc2ccccc2)CCc2ccccc2)c1`: the Ki in assay [1] is 211 nM; in assay [2] it was above 10000 nM; on Mu-type opioid receptor it was above 10000 nM. The molecule further registered an EC50 in assay [3] above 10000 nM. In assay [5], this molecule came in with a Ke of 1310 nM.
As for `Oc1ccc(CCN(CCc2ccccc2)CC2CC2)cc1`, the figures for the Ki (in assay [1]; in assay [2]; at Mu-type opioid receptor) were 218 nM, 2190 nM and 1750 nM, respectively. For the same molecule, the EC50 in assay [3] was above 10000 nM. In addition, in assay [5], the Ke came out at 32.1 nM.
